Laboratory results: ChEMBL document CHEMBL1697731, “Cheminformatics analysis of assertions mined from literature that describe drug-induced liver injury in different species” (Chem Res Toxicol, 2010)

Experiments:
[1] = test system: Hepatotoxicity; experiment: Literature-mined compound from Fourches et al multi-species drug-induced liver injury (DILI) dataset, effect in humans; conditions: human
[2] = test system: Hepatotoxicity; experiment: Literature-mined compound from Fourches et al multi-species drug-induced liver injury (DILI) dataset, effect in rodents; conditions: rodentia
[3] = test system: Hepatotoxicity; experiment: Literature-mined compound from Fourches et al multi-species drug-induced liver injury (DILI) dataset, effect in non-rodents

CC(=O)O[C@@]12CO[C@@H]1C[C@H](O)[C@@]1(C)C(=O)[C@H](O)C3=C(C)[C@@H](OC(=O)[C@H](O)[C@@H](NC(=O)OC(C)(C)C)c4ccccc4)C[C@@](O)([C@@H](OC(=O)c4ccccc4)[C@H]21)C3(C)C.O.O.O [DOCETAXEL]
Hepatotoxicity [1]: drug-induced liver injury reported | Hepatotoxicity [2]: drug-induced liver injury reported | Hepatotoxicity [3]: no drug-induced liver injury reported

CC/C=C\C/C=C\C/C=C\C/C=C\C/C=C\C/C=C\CCC(=O)O [DOCONEXENT]
Hepatotoxicity [1]: drug-induced liver injury reported | Hepatotoxicity [2]: drug-induced liver injury reported | Hepatotoxicity [3]: no drug-induced liver injury reported

NCCc1ccc(O)c(O)c1 [DOPAMINE]
Hepatotoxicity ([1]; Liver): drug-induced liver injury reported | Hepatotoxicity ([2]; Liver): drug-induced liver injury reported | Hepatotoxicity ([3]; Liver): drug-induced liver injury reported

CN(C)CC/C=C1\c2ccccc2CSc2ccccc21 [DOTHIEPIN]
Hepatotoxicity [1]: drug-induced liver injury reported | Hepatotoxicity [2]: no drug-induced liver injury reported | Hepatotoxicity [3]: no drug-induced liver injury reported

CN(C)CCC=C1c2ccccc2COc2ccccc21 [DOXEPIN]
Hepatotoxicity [1]: drug-induced liver injury reported | Hepatotoxicity [2]: no drug-induced liver injury reported | Hepatotoxicity [3]: no drug-induced liver injury reported

C[C@H]1O[C@@H](n2cc(F)c(=O)[nH]c2=O)[C@H](O)[C@@H]1O [DOXIFLURIDINE]
Hepatotoxicity [1]: drug-induced liver injury reported | Hepatotoxicity [2]: drug-induced liver injury reported | Hepatotoxicity [3]: no drug-induced liver injury reported

COc1cccc2c1C(=O)c1c(O)c3c(c(O)c1C2=O)C[C@@](O)(C(=O)CO)C[C@@H]3O[C@H]1C[C@H](N)[C@H](O)[C@H](C)O1.Cl [DOXORUBICIN HYDROCHLORIDE]
Hepatotoxicity [1]: drug-induced liver injury reported | Hepatotoxicity [2]: no drug-induced liver injury reported | Hepatotoxicity [3]: no drug-induced liver injury reported

COc1cccc2c1C(=O)c1c(O)c3c(c(O)c1C2=O)C[C@@](O)(C(=O)CO)C[C@@H]3O[C@H]1C[C@H](N)[C@H](O)[C@H](C)O1 [DOXORUBICIN]
Hepatotoxicity [1]: drug-induced liver injury reported | Hepatotoxicity [2]: drug-induced liver injury reported | Hepatotoxicity [3]: drug-induced liver injury reported

C[C@H]1c2cccc(O)c2C(=O)C2=C(O)[C@]3(O)C(=O)C(C(N)=O)=C(O)[C@@H](N(C)C)[C@@H]3[C@@H](O)[C@@H]21.O [DOXYCYCLINE]
Hepatotoxicity [1]: drug-induced liver injury reported | Hepatotoxicity [2]: drug-induced liver injury reported | Hepatotoxicity [3]: drug-induced liver injury reported

CC/C(=C(/c1ccc(OCCN(C)C)cc1)c1cccc(O)c1)c1ccccc1 [DROLOXIFENE]
Hepatotoxicity [1]: no drug-induced liver injury reported | Hepatotoxicity [2]: drug-induced liver injury reported | Hepatotoxicity [3]: no drug-induced liver injury reported

CCCCCc1cc(O)c2c(c1)OC(C)(C)[C@@H]1CCC(C)=C[C@@H]21 [DRONABINOL]
Hepatotoxicity [1]: drug-induced liver injury reported | Hepatotoxicity [2]: drug-induced liver injury reported | Hepatotoxicity [3]: no drug-induced liver injury reported

CNCC[C@H](Oc1cccc2ccccc12)c1cccs1 [DULOXETINE]
Hepatotoxicity ([1]; Liver): drug-induced liver injury reported | Hepatotoxicity ([2]; Liver): no drug-induced liver injury reported | Hepatotoxicity ([3]; Liver): no drug-induced liver injury reported

CC(=O)[C@H]1CC[C@H]2[C@@H]3C=CC4=CC(=O)CC[C@@]4(C)[C@@H]3CC[C@]12C [DYDROGESTERONE]
Hepatotoxicity [1]: drug-induced liver injury reported | Hepatotoxicity [2]: drug-induced liver injury reported | Hepatotoxicity [3]: no drug-induced liver injury reported

Clc1ccc(COC(Cn2ccnc2)c2ccc(Cl)cc2Cl)cc1 (stereo unspecified) [ECONAZOLE]
Hepatotoxicity [1]: no drug-induced liver injury reported | Hepatotoxicity [2]: drug-induced liver injury reported | Hepatotoxicity [3]: no drug-induced liver injury reported

O=C1Nc2ccc(Cl)cc2[C@@](C#CC2CC2)(C(F)(F)F)O1 [EFAVIRENZ]
Hepatotoxicity [1]: drug-induced liver injury reported | Hepatotoxicity [2]: drug-induced liver injury reported | Hepatotoxicity [3]: no drug-induced liver injury reported

NCCCC(N)(C(=O)O)C(F)F (stereo unspecified) [EFLORNITHINE]
Hepatotoxicity [1]: no drug-induced liver injury reported | Hepatotoxicity [2]: drug-induced liver injury reported | Hepatotoxicity [3]: no drug-induced liver injury reported

CCCCCCCCCCCCS[C@H](C(=O)Nc1cc(C)c(O)c(C)c1C)c1ccccc1 [EFLUCIMIBE]
Hepatotoxicity [1]: no drug-induced liver injury reported | Hepatotoxicity [2]: no drug-induced liver injury reported | Hepatotoxicity [3]: drug-induced liver injury reported

C[C@H](N[C@@H](CCc1ccccc1)C(=O)O)C(=O)N1CCC[C@H]1C(=O)O [ENALAPRILAT ANHYDROUS]
Hepatotoxicity [1]: drug-induced liver injury reported | Hepatotoxicity [2]: no drug-induced liver injury reported | Hepatotoxicity [3]: no drug-induced liver injury reported

COc1ccc(C(=O)Nc2ccccc2CCC2CCCCN2C)cc1 (stereo unspecified) [ENCAINIDE]
Hepatotoxicity [1]: drug-induced liver injury reported | Hepatotoxicity [2]: no drug-induced liver injury reported | Hepatotoxicity [3]: no drug-induced liver injury reported

CCn1cc(C(=O)O)c(=O)c2cc(F)c(N3CCNCC3)nc21 [ENOXACIN]
Hepatotoxicity [1]: drug-induced liver injury reported | Hepatotoxicity [2]: drug-induced liver injury reported | Hepatotoxicity [3]: no drug-induced liver injury reported

CSc1ccc(C(=O)c2[nH]c(=O)[nH]c2C)cc1 [ENOXIMONE]
Hepatotoxicity [1]: no drug-induced liver injury reported | Hepatotoxicity [2]: drug-induced liver injury reported | Hepatotoxicity [3]: no drug-induced liver injury reported

CC1(C)[C@@H](O)CC[C@]2(C)[C@H]3C(=O)C=C4[C@@H]5C[C@@](C)(C(=O)O)CC[C@]5(C)CC[C@@]4(C)[C@]3(C)CC[C@@H]12 [ENOXOLONE]
Hepatotoxicity [1]: drug-induced liver injury reported | Hepatotoxicity [2]: drug-induced liver injury reported | Hepatotoxicity [3]: no drug-induced liver injury reported

CCN(CC)C(=O)/C(C#N)=C/c1cc(O)c(O)c([N+](=O)[O-])c1 [ENTACAPONE]
Hepatotoxicity [1]: drug-induced liver injury reported | Hepatotoxicity [2]: drug-induced liver injury reported | Hepatotoxicity [3]: no drug-induced liver injury reported

CN[C@@H](C)[C@H](O)c1ccccc1 [EPHEDRINE]
Hepatotoxicity [1]: drug-induced liver injury reported | Hepatotoxicity [2]: no drug-induced liver injury reported | Hepatotoxicity [3]: no drug-induced liver injury reported

CNC[C@H](O)c1ccc(O)c(O)c1 [EPINEPHRINE]
Hepatotoxicity ([1]; Liver): drug-induced liver injury reported | Hepatotoxicity ([2]; Liver): drug-induced liver injury reported | Hepatotoxicity ([3]; Liver): drug-induced liver injury reported

COc1cccc2c1C(=O)c1c(O)c3c(c(O)c1C2=O)C[C@@](O)(C(=O)CO)C[C@@H]3O[C@H]1C[C@H](N)[C@@H](O)[C@H](C)O1 [EPIRUBICIN]
Hepatotoxicity [1]: no drug-induced liver injury reported | Hepatotoxicity [2]: drug-induced liver injury reported | Hepatotoxicity [3]: no drug-induced liver injury reported

CCCCC[C@H](O)/C=C/[C@@H]1[C@H]2C/C(=C/CCCC(=O)[O-])O[C@H]2C[C@H]1O.[Na+] [EPOPROSTENOL SODIUM]
Hepatotoxicity [1]: no drug-induced liver injury reported | Hepatotoxicity [2]: drug-induced liver injury reported | Hepatotoxicity [3]: no drug-induced liver injury reported

O=C(O)CSCC(=O)NC1CCSC1=O (stereo unspecified) [ERDOSTEINE]
Hepatotoxicity [1]: no drug-induced liver injury reported | Hepatotoxicity [2]: drug-induced liver injury reported | Hepatotoxicity [3]: no drug-induced liver injury reported

CN1C[C@H](C(=O)N[C@]2(C)O[C@@]3(O)[C@@H]4CCCN4C(=O)[C@H](Cc4ccccc4)N3C2=O)C=C2c3cccc4[nH]cc(c34)C[C@H]21 [ERGOTAMINE]
Hepatotoxicity [1]: drug-induced liver injury reported | Hepatotoxicity [2]: no drug-induced liver injury reported | Hepatotoxicity [3]: drug-induced liver injury reported

CCC(=O)O[C@H]1[C@H](O[C@@H]2[C@@H](C)[C@H](O[C@H]3C[C@@](C)(OC)[C@@H](O)[C@H](C)O3)[C@@H](C)C(=O)O[C@H](CC)[C@@](C)(O)[C@H](O)[C@@H](C)C(=O)[C@H](C)C[C@@]2(C)O)O[C@H](C)C[C@@H]1N(C)C.CCCCCCCCCCCCOS(=O)(=O)O [ERYTHROMYCIN ESTOLATE]
Hepatotoxicity [1]: drug-induced liver injury reported | Hepatotoxicity [2]: drug-induced liver injury reported | Hepatotoxicity [3]: no drug-induced liver injury reported

CCOC(=O)CCC(=O)O[C@H]1[C@H](O[C@@H]2[C@@H](C)[C@H](O[C@H]3C[C@@](C)(OC)[C@@H](O)[C@H](C)O3)[C@@H](C)C(=O)O[C@H](CC)[C@@](C)(O)[C@H](O)[C@@H](C)C(=O)[C@H](C)C[C@@]2(C)O)O[C@H](C)C[C@@H]1N(C)C [ERYTHROMYCIN ETHYLSUCCINATE]
Hepatotoxicity [1]: drug-induced liver injury reported | Hepatotoxicity [2]: no drug-induced liver injury reported | Hepatotoxicity [3]: no drug-induced liver injury reported

CC[C@H]1OC(=O)[C@H](C)[C@@H](O[C@H]2C[C@@](C)(OC)[C@@H](O)[C@H](C)O2)[C@H](C)[C@@H](O[C@@H]2O[C@H](C)C[C@H](N(C)C)[C@H]2O)[C@](C)(O)C[C@@H](C)C(=O)[C@H](C)[C@@H](O)[C@]1(C)O.O=C(O)[C@H](O)[C@@H](O)[C@H](O[C@@H]1O[C@H](CO)[C@H](O)[C@H](O)[C@H]1O)[C@H](O)CO [ERYTHROMYCIN LACTOBIONATE]
Hepatotoxicity [1]: drug-induced liver injury reported | Hepatotoxicity [2]: no drug-induced liver injury reported | Hepatotoxicity [3]: no drug-induced liver injury reported
